Values quoted from earlier work, collected in patent US20230354819A1 (priority 2020, published 2023).
Bridge positions count the residues as written; N and C are the ends. Square brackets hold non-standard residues; d marks the D form. Peptide text beside a SMILES is read from it. * marks the point of attachment. ξ: configuration not given here. Pentadecanoyl(3ξ-OH,15-Gua) = N=C(N)NCCCCCCCCCCCCC(O)CC(=O)*; d(aThr) = C[C@@H](O)[C@@H](N)C(=O)O

Tested on: cultured parsley cells
Conditions: WO 2006/016558

| Compound | induction of resistance reactions |
| --- | --- |
| CC(C)[C@@H]1NC(=O)[C@@H](C(C)C)NC(=O)[C@@H](NC(=O)CC(O)CCCCCCCCCCCCN=C(N)N)[C@@H](C)OC(=O)[C@@H](C)NC(=O)[C@@H](CC(N)=O)NC(=O)[C@@H]([C@@H](C)O)NC1=O (some centres unmarked) [fusaricidin A] ({Pentadecanoyl(3ξ-OH,15-Gua)}-T[dV]V[d(aThr)][dN][dA]; ester 1-C) | induce resistance reactions |
| CC(C)[C@@H]1NC(=O)[C@@H](C(C)C)NC(=O)[C@@H](NC(=O)CC(O)CCCCCCCCCCCCN=C(N)N)C(C)OC(=O)[C@@H](C)NC(=O)[C@@H](CCC(N)=O)NC(=O)[C@@H]([C@H](C)O)NC1=O (stereo in doubt) [fusaricidin B] | induce resistance reactions |
